The record followed here is US11760984B2, “CRISPR protein inhibitors” (THE BROAD INSTITUTE, INC., priority 2017, dated 2023).

In series [1] the target is T1, SpCas9 (Streptococcus pyogenes serotype M1, UniProt Q99ZW2). Kind of series: mCherry-GFP NHEJ assay. The format is cell-based. The settings on record: HEK293T cells; 2-10 μM; 24 h. As to the method: NHEJ assay. Approximately 8,000 cells/well were plated in a 96-well format 24 h before transiently transfected with a total 100 ng of DN66 (mCherry-TAG-GFP reporter) and DN78 (SpCas9 and gRNA) plasmids (1:1) using lipofectamine 2000 (Life Technologies) 3. Transfected cells were allowed to grow in the indicated amount of compound or DMSO for 24 h. Cells were then fixed using 4% paraformaldehyde and imaged with the HCS NuclearMask™ Blue Stain (Life Technologies) as the nuclear counter-staining agent. Imaging was performed with an IXM 137204 ImageXpress Automated High Content Microscope (Molecular Devices) at 20× magnification under three excitation channels (blue, green and red) with 9 acquiring sites per well. Images were analyzed in the MetaXpress software to determine the % NHEJ and the data were plotted using GraphPad Prism 6. The Z′-value was calculated following the formula: […]
T1 sequence (Q99ZW2 whole entry): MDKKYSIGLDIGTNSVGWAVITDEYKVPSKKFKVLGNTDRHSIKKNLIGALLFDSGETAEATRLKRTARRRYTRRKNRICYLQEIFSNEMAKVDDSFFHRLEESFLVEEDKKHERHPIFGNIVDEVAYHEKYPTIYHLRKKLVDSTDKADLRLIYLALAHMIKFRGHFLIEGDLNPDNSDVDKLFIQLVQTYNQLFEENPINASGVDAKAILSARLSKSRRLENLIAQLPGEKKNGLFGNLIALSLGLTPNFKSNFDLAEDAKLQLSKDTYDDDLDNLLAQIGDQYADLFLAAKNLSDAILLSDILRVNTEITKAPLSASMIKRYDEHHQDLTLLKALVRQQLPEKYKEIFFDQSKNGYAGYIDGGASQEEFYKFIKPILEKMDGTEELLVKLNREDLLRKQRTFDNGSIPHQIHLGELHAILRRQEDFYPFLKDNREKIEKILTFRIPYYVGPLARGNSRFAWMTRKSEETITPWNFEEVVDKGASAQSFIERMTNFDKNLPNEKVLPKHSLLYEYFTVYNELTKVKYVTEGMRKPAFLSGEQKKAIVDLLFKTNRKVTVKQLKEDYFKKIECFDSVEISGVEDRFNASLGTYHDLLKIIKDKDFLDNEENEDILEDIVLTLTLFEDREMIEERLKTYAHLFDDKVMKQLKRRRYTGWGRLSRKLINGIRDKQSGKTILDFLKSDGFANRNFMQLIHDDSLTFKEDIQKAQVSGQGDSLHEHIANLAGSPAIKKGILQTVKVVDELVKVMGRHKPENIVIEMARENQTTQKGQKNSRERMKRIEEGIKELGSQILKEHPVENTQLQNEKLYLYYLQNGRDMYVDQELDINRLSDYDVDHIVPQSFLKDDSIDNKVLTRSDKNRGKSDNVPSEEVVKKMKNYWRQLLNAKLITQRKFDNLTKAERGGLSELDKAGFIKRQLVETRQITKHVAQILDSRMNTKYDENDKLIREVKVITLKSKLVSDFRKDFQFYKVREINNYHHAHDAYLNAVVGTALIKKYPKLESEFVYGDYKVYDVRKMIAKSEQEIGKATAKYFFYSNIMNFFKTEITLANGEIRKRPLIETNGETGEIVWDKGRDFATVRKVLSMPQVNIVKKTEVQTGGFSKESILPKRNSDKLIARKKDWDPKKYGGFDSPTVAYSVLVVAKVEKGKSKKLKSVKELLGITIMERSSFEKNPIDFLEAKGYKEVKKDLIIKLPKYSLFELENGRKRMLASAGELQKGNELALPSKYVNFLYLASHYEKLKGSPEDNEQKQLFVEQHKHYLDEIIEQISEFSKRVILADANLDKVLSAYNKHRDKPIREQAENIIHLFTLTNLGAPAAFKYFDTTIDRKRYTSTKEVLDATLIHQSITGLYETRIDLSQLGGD

Series [2] can be described thus: Solubility in PBS determined by mass spectroscopy. The conditions noted are these: aqueous buffer, 24 h incubation at room temperature, read-out: solubility: no detectable aggregation up to. The format is physicochemical. The method, then: FIG. 15—The solubility of BRD7087 compound in PBS as determined by mass spectroscopy after 24 h of incubation at room temperature. Compounds Antipyrine and Clotrimazole were used as positive controls.
FIG. 59. The solubility of BRD7087 compound in PBS as determined by Mass spectroscopy after 24 h of incubation at room temperature. Compounds Antipyrine and Clotrimazole have been used as the positive controls.

Series [3] addresses T1, SpCas9. Kind of series: mKate2 expression (knockdown) assay. Format: cell-based. The settings on record: for activity in mKate2 assay: HEK293 cells, 1.5-5 μM, 24 h. The method, then:
mKate2 expression assay. Approximately 8,000 cells/well were plated in a 96-well format 24 h before transiently transfected with 100 ng of either CgRNA (Addgene Plasmid #64955) or T1gRNA (Addgene Plasmid #62717) plasmids using lipofectamine 2000 (Life Technologies). Transfected cells were allowed to grow in the indicated amount of compound or DMSO for 24 h. Cells were then fixed using 4% paraformaldehyde and imaged with the HCS NuclearMask™ Blue Stain (Life Technologies) as the nuclear counter-staining agent. Imaging was performed with an IXM 137204 ImageXpress Automated High Content Microscope (Molecular Devices) at 20× magnification under two excitation channels (blue and red) with 9 acquiring sites per well. Images were analyzed in the MetaXpress software to determine the % mKate2 positive cells and the % NHEJ was calculated following a reported protocol and plotted using GraphPad Prism 6. The Z′-value was calculated following the formula: […]

Series [4] addresses T2, dCas9-cytidine deaminase conjugate (BE3) (UniProt P14739+P38483+Q99ZW2, D10A).
T2 construct: made in house; host or cells: E. coli BL21 Star (DE3); purified protein:sgRNA complex lipofected into HEK293T cells
Kind of series: BE3 base-editing of EMX1 gene in HEK293T cells. Format: cell-based. The settings on record: 1.25-20 μM, 72 h. The method, then:
Protein transfection of base editor BE3 into HEK293T cells. HEK293T cells were seeded on 48-well BioCoat poly-D-lysine plates (Corning) in 250 μL of antibiotic-free medium and transfected at ˜70% confluency. Prior to protein transfection, cells were incubated with 2 μL of DMSO-suspended BRD7087 or BRD5779 at the indicated concentration for 2-3 hours. BE3 protein was incubated with 1.1× molar excess of EMX1-targeting sgRNA at a final concentration ratio of 200 nM. 220 nM (based on a total well volume of 275 μL). The complex was mixed with 0.2 μL of compound for five minutes, incubated with 1.5 μL Lipofectamine 2000 (Thermo Fisher) and transfected according to the manufacturer's protocol plasmid delivery. […]
Purifications and sequencing of genomic DNA. […] Barcoded samples were pooled and purified by gel extraction (Qiagen) before quantification using the Qubit dsDNA HS Kit (Thermo Fisher) and qPCR (KAPA BioSystems) according to the manufacturer's instructions. Sequencing of pooled samples was performed using a single-end read from 260 to 300 bases on the MiSeq (Illumina) according to the manufacturer's instructions.
Analysis of base-edited sequences. Nucleotide frequencies were analyzed using a previously described MATLAB script 5. Briefly, the reads were aligned to the reference sequence via the Smith-Waterman algorithm. […]

The structures appear in SMILES notation. Converted amounts (≈) assume the structure as drawn. “Also recorded” adds a separate entry of the source.

As for `COc1ccc(-c2ccc3c(c2)[C@H]2[C@H](CCN2Cc2ccncc2)[C@@H](CO)N3)cc1` [BRD5779, ((3aR,4S,9bR)-8-(4-Methoxyphenyl)-1-(pyridin-4-ylmethyl)-2,3,3a,4,5,9b-hexahydro-1H-pyrrolo[3,2-c]quinolin-4-yl)methanol], the “inhibition of SpCas9-mediated NHEJ” value on SpCas9 [1] was “Dose-dependent inhibition of SpCas9-mediated NHEJ; also recorded: active”. Besides, the solubility at 24 h in series [2] is around 75 µM (≈ 30.1 µg/mL). Besides, at SpCas9 [3], the “activity in mKate2 assay” value is listed as “Dose-dependent recovery of the mKate2 signal”. Moreover, the “inhibition of BE3-mediated base-editing (C→T conversion, words)” value in series [4] is “efficient and dose-dependent inhibition”.
Consider `OC[C@H]1Nc2ccc(-c3cccc(F)c3)cc2[C@H]2[C@@H]1CCN2Cc1ccncc1` [BRD7087, ((3aR,4S,9bR)-8-(3-Fluorophenyl)-1-(pyridin-4-ylmethyl)-2,3,3a,4,5,9b-hexahydro-1H-pyrrolo[3,2-c]quinolin-4-yl)methanol], for which the “inhibition of SpCas9-mediated NHEJ” value against SpCas9 [1] is recorded as “Dose-dependent inhibition of SpCas9-mediated NHEJ; also recorded: active”. Moreover, the solubility at 24 h in series [2] was around 75 µM (≈ 29.2 µg/mL). In addition, at SpCas9 [3], the IC50 is around 5 µM and the “activity in mKate2 assay” value is “Dose-dependent recovery of the mKate2 signal; also recorded: more active than BRD5779”. The “inhibition of BE3-mediated base-editing (C→T conversion, words)” value in series [4] is “efficient and dose-dependent inhibition”.

In general, solubility refers to how much of the substance goes into solution per volume. As a reminder, the IC50 is the concentration that gives 50% inhibition. Lower therefore signals greater potency.
